Reference: US7759337B2, “Phthalazine compounds and methods of use” (Amgen Inc., priority 2005, dated 2010)

system: production of TNF by monocytes activated with bacterial lipopolysaccharide (LPS); experiment: Lipopolysaccharide-activated monocyte TNF production assay; assay type: cell-based; details: Homo sapiens; whole blood monocyte assay (LPS induced TNF release)
Method: Test compounds were evaluated in vitro for the ability to inhibit the production of TNF by monocytes activated with bacterial lipopolysaccharide (LPS). Fresh residual source leukocytes (a byproduct of plateletpheresis) were obtained from a local blood bank, and peripheral blood mononuclear cells (PBMCs) were isolated by density gradient centrifugation on Ficol-Paque Plus (Pharmacia). PBMCs were suspended at 2×10^6/mL in DMEM supplemented to contain 2% FCS, 10 mM, 0.3 mg/mL […], 100 U/mL penicillin G and […] streptomycin sulfate (complete media). Cells were plated into Falcon flat bottom, 96 well culture plates (200 μL/well) and cultured overnight at 37° C. and 6% CO2. Non-adherent cells were removed by washing with 200 μl/well of fresh medium.
Test compounds were dissolved in […]. Compound stock solutions were prepared to an initial concentration of […]. Stocks were diluted initially to 20-200 μM in complete media. Nine two-fold serial dilutions of each compound were then prepared in complete medium.
One hundred microliters of each test compound dilution were added to microtiter wells containing adherent monocytes and 100 μL complete medium. Monocytes were cultured with test compounds for 60 min at which time 25 μL of complete medium containing 30 ng/mL lipopolysaccharide from E. coli K532 were added to each well. Cells were cultured an additional 4 hrs. Culture supernatants were then removed and TNF presence in the supernatants was quantified using an ELISA.
Flat bottom, 96 well Corning High Binding ELISA plates were coated overnight (4° C.) with 150 μL/well of 3 μg/mL murine anti-human TNF-α MAb (R&D Systems #MAB210). Wells were then blocked for 1 h at room temperature with 200 μL/well of CaCl2-free ELISA buffer supplemented to contain 20 mg/mL BSA (standard ELISA buffer: […], 150 mM NaCl, 2 mM CaCl2, 0.15 mM thimerosal, pH 7.4). Plates were washed and replenished with 100 μL of test supernatants (diluted 1:3) or standards. Standards consisted of eleven 1.5-fold serial dilutions from a stock of I ng/mL recombinant human TNF (R&D Systems). Plates were incubated at room temperature for 1 h on orbital shaker (300 rpm), washed and replenished with 100 μL/well of 0.5 μg/mL goat anti-human TNF-α (R&D systems #AB-210-NA) biotinylated at a 4:1 ratio. Plates were incubated for 40 min, washed and replenished with 100 μL/well of alkaline phosphatase-conjugated streptavidin (Jackson ImmunoResearch #016-050-084) at 0.02 μg/mL. Plates were incubated 30 min, washed and replenished with 200 μL/well of 1 mg/mL of p-nitrophenyl phosphate. After 30 min, plates were read at 405 nm on a Vmax plate reader.
Standard curve data were fit to a second order polynomial and unknown TNF-α concentrations determined from their OD by solving this equation for concentration. TNF concentrations were then plotted vs. test compound concentration using a second order polynomial. This equation was then used to calculate the concentration of test compounds causing a 50% reduction in TNF production.

| SMILES | IC50 |
| --- | --- |
| Cc1ccc(-c2nnn[nH]2)cc1-c1ccc2c(N3CCOCC3)nncc2c1 [Example 77, 6-[2-Methyl-5-(1H-tetraazol-5-yl)phenyl]-1-morpholin-4-ylphthalazine] | ≤ 5 µM |
| Cc1ccc(C(=O)NC2CC2)cc1-c1ccc2c(C#N)nncc2c1 [Example 79, 3-(1-cyanophthalazin-6-yl)-N-cyclopropyl-4-methylbenzamide] | ≤ 5 µM |
| Cc1sc(C(=O)NC2CC2)cc1-c1ccc2c(N3CCOCC3)nncc2c1 [Example 80, N-Cyclopropyl-5-methyl-4-(1-morpholin-4-ylphthalazin-6-yl)thiophene-2-carboxamide] | ≤ 5 µM |
| Cc1ccc(C(N)=O)cc1-c1ccc2c(N3CCOC[C@H]3C)nncc2c1 [Example 82, 4-Methyl-3-{1-[(3R)-3-methylmorpholin4-yl]phthalazin-6-yl}benzamide] | ≤ 5 µM |
| Cc1ccc(C(=O)NC2CC2)cc1-c1ccc2c(C(N)=O)nncc2c1 [Example 83, 6-{5-[(Cyclopropylamino)carbonyl]-2-methylphenyl}phthalazine-1-carboxamide] | ≤ 5 µM |
| CC(=O)c1nnc(C)c2cc(-c3cc(C(=O)NC4CC4)ccc3C)ccc12 [Example 84, 3-(1-Acetyl-4-methylphthalazin-6-yl)-N-cyclopropyl-4-methylbenzamide] | ≤ 5 µM |
| Cc1ccc(C(=O)NC2CC2)cc1-c1ccc2c(C(=O)N3CCOCC3)nncc2c1 [Example 85, N-Cyclopropyl-4-methyl-3-[1-(morpholin-4-ylcarbonyl)phthalazin-6-yl]benzamide] | ≤ 5 µM |
| Cc1ccc(C(N)=O)cc1-c1ccc2c(N3CCCC3=O)nncc2c1 [Example 94, 4-methyl-3-(1-(2-oxopyrrolidine-1-yl)phthalazin-6-yl)benzamide] | ≤ 5 µM |
| Cc1ccc(C(N)=O)cc1-c1ccc2c(-c3ccc(S(C)(=O)=O)cc3C)nncc2c1 [Example 96, 4-methyl-3-(1-(2-methyl-4-(methylsulfonyl)phenyl)phthalazin-6-yl)benzamide] | ≤ 5 µM |
| Cc1ccc(C(=O)NC2CC2)cc1-c1ccc2c(N3CCCC[C@@H]3C)nncc2c1 [Example 97, N-cyclopropyl-4-methyl-3-{1-[(2S)-2-methylpiperidin-1-yl]phthalazin-6-yl}benzamide] | ≤ 5 µM |
| Cc1ccc(C(=O)NC2CC2)cc1-c1ccc2c(-c3ccccc3C(N)=O)nncc2c1 [Example 98, 3-(1-(2-(aminocarbonyl)phenyl)-6-phthalazinyl)-N-cyclopropyl-4-methylbenzamide] | ≤ 5 µM |
| Cc1ccc(C(=O)NC2CC2)cc1-c1ccc2c(N3CCN4C(=O)OC[C@H]4C3)nncc2c1 [Example 99, 3-{1-[(8aR)-3-oxotetrahydro[1,3]oxazolo[3,4-a]pyrazin-7(1H)-yl]phthalazin-6-yl}-N-cyclopropyl-4-methylbenzamide] | ≤ 5 µM |
| Cc1ccc(C(=O)NC2CC2)cc1-c1ccc2c(N3CCNC(=O)[C@H]3C)nncc2c1 [Example 100, N-cyclopropyl-4-methyl-3-{1-[(2R)-2-methyl-3-oxopiperazin-1-yl]phthalazin-6-yl}benzamide] | ≤ 5 µM |
| Cc1ccc(C(=O)NC2CC2)cc1-c1ccc2c(N3CCN4C(=O)OC[C@@H]4C3)nncc2c1 [Example 101, 3-{1-[(8aS)-3-oxotetrahydro[1,3]oxazolo[3,4-a]pyrazin-7(1H)-yl]phthalazin-6-yl}-N-cyclopropyl-4-methylbenzamide] | ≤ 5 µM |
| Cc1ccc(C(=O)NC2CC2)cc1-c1ccc2c(N3CCN4C(=O)CC[C@H]4C3)nncc2c1 [Example 102, 3-{1-[(8aS)-6-oxohexahydropyrrolo[1,2-a]pyrazin-2(1H)-yl]phthalazin-6-yl}-N-cyclopropyl-4-methylbenzamide] | ≤ 5 µM |
| Cc1ccc(C(=O)NC2CC2)cc1-c1ccc2c(N3CCc4c(O)n[nH]c4C3)nncc2c1 [Example 103, N-cyclopropyl-3-(1-(3-hydroxy-4,5-dihydro-1H-pyrazolo[3,4-c]pyridin-6(7H)-yl)phthalazin-6-yl)-4-methylbenzamide] | ≤ 5 µM |
